These results are taken from EPA's ToxValDB 9.5 (doi:10.2903/j.efsa.2016.4515).

By NOAEL is commonly meant the highest tested level that showed no adverse finding.

One data set concerns Bibionidae. The note with it: chronic/long-term, other.
The next data set relates to Folsomia candida. The note with it: chronic/long-term; mortality.
A further data set concerns Anas platyrhynchos. Conditions: chronic/long-term.
Another data set relates to Neomysis kadiakensis. Conditions: chronic/long-term; duration: 28 days; reproduction.
In another data set the test system is Colinus virginianus. The note with it: acute, oral, mortality.
The next data set deals with Apis mellifera. Conditions: acute, mortality.
In the next data set the test system is Aphidius rhopalosiphi. The experiment in a line: LR50; higher = less toxic. The note with it: not reported; other.

In brackets after ≈: the same amount, converted by molar mass. Bounds are passed on as bounds.

On to `CO/C=C(/C(=O)OC)c1ccccc1COc1cccc(C(F)(F)F)n1` [Picoxystrobin], for which the NOEC was found to be 0.0084 mg/L in the data set on Bibionidae (duration: 21 days); 5 mg/kg in the data set with Bibionidae (duration: 28 days); 12.5 mg/kg with Folsomia candida; 0.01 mg/L with Oncorhynchus mykiss (chronic/long-term, duration: 28 days, growth); 0.0036 mg/L with Neomysis kadiakensis; 0.315 mg/kg in the data set on Tagia sp. (chronic/long-term, reproduction). Moreover, in the data set on Anas platyrhynchos, the NOEL was determined as 110 mg/kg-day. Further, the LC50 worked out at 0.05 µg/mL (≈ 0.136 µM) in the data set with Oncorhynchus mykiss (acute, duration: 96 hours, mortality) and 3.35 mg/kg with Tagia sp. (acute, mortality). Further, the LD50 is > 5000 mg/kg with Rattus norvegicus (acute, mortality); > 1770 mg/kg-day with Colinus virginianus (diet); > 2250 mg/kg in the data set on Colinus virginianus; > 200 µg/piece with Apis mellifera (dermal); > 200 µg/piece in the data set with Apis mellifera (oral, unspecified). The NOAEL with Rattus norvegicus (chronic) came to 21.8 mg/kg-day. The LR50 with Aphidius rhopalosiphi came to 0.675 g/ha.
